In patent US20150105252A1, “SUBSTITUTED PYRAZOLES AS HERBICIDES” (E I DU PONT DE NEMOURS AND COMPANY, priority 2013, published 2015):

Columns and labels:
canarygrass = assay: Test D preemergence; type: in vivo, Phalaris minor; settings: scale 0 to 100
In short: (§1)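 Seeds are planted in silt loam and treated preemergence, while parallel plantings in a peat moss/vermiculite medium with starter nutrients receive postemergence sprays at the 1- to 4-leaf stage. All formulations use a non-phytotoxic solvent mixture with surfactant. Plants are kept in a controlled growth environment and rated visually after 14–21 days.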

pigweed, palmer = assay: Test F preemergence; type: in vivo, Amaranthus palmeri
In short: (§2)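 Visual injury was scored from 0 (none) to 100 (complete control) relative to untreated controls after 14–21 days in a greenhouse. Before that, formulated compound (solvent plus surfactant) was sprayed either on silt-loam soil right after sowing or on emerged plants at the 1–4-leaf stage, 2–18 cm tall.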

large crabgrass = assay: Test F preemergence; type: in vivo, Digitaria sanguinalis
In short: as §2

blackgrass = assay: Test D preemergence; type: in vivo, Alopecurus myosuroides; settings: scale 0 to 100
In short: as §1

field violet = assay: Test D postemergence; type: in vivo, Viola arvensis; settings: scale 0 to 100
In short: as §1

velvetleaf = assay: Test F preemergence; type: in vivo, Abutilon theophrasti
In short: as §2

speedwell = assay: Test D postemergence; type: in vivo, Veronica persica; settings: scale 0 to 100
In short: as §1

ryegrass, Italian = assay: Test D postemergence; type: in vivo, Lolium multiflorum; settings: scale 0 to 100
In short: as §1

pigweed [1] = assay: Test D preemergence; type: in vivo, Amaranthus retroflexus; settings: scale 0 to 100
In short: as §1

pigweed [2] = assay: Test D postemergence; type: in vivo, Amaranthus retroflexus; settings: scale 0 to 100
In short: as §1

windgrass = assay: Test D postemergence; type: in vivo, Apera spica-venti; settings: scale 0 to 100
In short: as §1

nightshade = assay: Test F preemergence; type: in vivo, Solanum ptycanthum
In short: as §2

hairy beggarticks = assay: Test F preemergence; type: in vivo, Bidens pilosa
In short: as §2

giant foxtail = assay: Test F preemergence; type: in vivo, Setaria faberii
In short: as §2

[3] = Preemergence, 125 g ai/ha, scale 0 to 100
[4] = preemergence, 8 g ai/ha, scale 0 to 100, 100 is complete control
[5] = Preemergence, 62 g ai/ha, scale 0 to 100
[6] = preemergence, scale 0 to 100, 100 is complete control

## CCOc1cc(C(=O)NC(C)C)nn1Cc1ccnc(C(F)(F)F)c1 [Compound 188]
canarygrass; 31 g ai/ha
  Plant response rating, Canarygrass: 55
canarygrass; 62 g ai/ha
  Plant response rating, Canarygrass: 95
canarygrass; 125 g ai/ha
  Plant response rating, Canarygrass: 100
canarygrass; 250 g ai/ha
  Plant response rating, Canarygrass: 100
pigweed, palmer; [3]
  Plant response rating, Pigweed, Palmer: 50
pigweed, palmer; [4]
  Plant response rating, Pigweed, Palmer: 0
Large crabgrass; [5]
  Plant response rating, Large Crabgrass: 100
Large crabgrass; [3]
  Plant response rating, Large Crabgrass: 100
Large crabgrass; [4]
  Plant response rating, Large Crabgrass: 90
Large crabgrass; [6]
  Plant response rating, Large Crabgrass: 100
blackgrass; 31 g ai/ha
  Plant response rating, Blackgrass: 55
blackgrass; 62 g ai/ha
  Plant response rating, Blackgrass: 75
blackgrass; 125 g ai/ha
  Plant response rating, Blackgrass: 100
blackgrass; 250 g ai/ha
  Plant response rating, Blackgrass: 100
Field violet; Postemergence, 31 g ai/ha
  Field Violet plant response rating: 85
Field violet; Postemergence, 125 g ai/ha
  Field Violet plant response rating: 100
Field violet; Postemergence, 250 g ai/ha
  Field Violet plant response rating: 100
Field violet; postemergence, 62 g ai/ha
  Field Violet plant response rating: 85
velvetleaf; [5]
  Plant response rating, Velvetleaf: 100
velvetleaf; [3]
  Plant response rating, Velvetleaf: 100
velvetleaf; [4]
  Plant response rating, Velvetleaf: 0
velvetleaf; [6]
  Plant response rating, Velvetleaf: 20
speedwell; Postemergence, 31 g ai/ha
  Speedwell plant response rating: 75
speedwell; Postemergence, 125 g ai/ha
  Speedwell plant response rating: 80
speedwell; Postemergence, 250 g ai/ha
  Speedwell plant response rating: 90
speedwell; postemergence, 62 g ai/ha
  Speedwell plant response rating: 75
ryegrass, Italian; Postemergence, 31 g ai/ha
  Ryegrass, Italian plant response rating: 20
ryegrass, Italian; Postemergence, 125 g ai/ha
  Ryegrass, Italian plant response rating: 25
ryegrass, Italian; Postemergence, 250 g ai/ha
  Ryegrass, Italian plant response rating: 65
ryegrass, Italian; postemergence, 62 g ai/ha
  Ryegrass, Italian plant response rating: 20
Pigweed [1]; 62 g ai/ha
  Plant response rating, Pigweed: 100
Pigweed [1]; 125 g ai/ha
  Plant response rating, Pigweed: 100
Pigweed [1]; 250 g ai/ha
  Plant response rating, Pigweed: 100
Pigweed [2]; Postemergence, 31 g ai/ha
  Pigweed plant response rating: 40
Pigweed [2]; Postemergence, 125 g ai/ha
  Pigweed plant response rating: 60
Pigweed [2]; Postemergence, 250 g ai/ha
  Pigweed plant response rating: 80
Pigweed [2]; postemergence, 62 g ai/ha
  Pigweed plant response rating: 40
windgrass; Postemergence, 31 g ai/ha
  Windgrass plant response rating: 20
windgrass; Postemergence, 125 g ai/ha
  Windgrass plant response rating: 35
windgrass; Postemergence, 250 g ai/ha
  Windgrass plant response rating: 45
windgrass; postemergence, 62 g ai/ha
  Windgrass plant response rating: 20
nightshade; Preemergence, 16 g ai/ha, scale 0 to 100
  Plant response rating, Nightshade: 98
nightshade; [5]
  Plant response rating, Nightshade: 95
nightshade; [3]
  Plant response rating, Nightshade: 98
nightshade; [4]
  Plant response rating, Nightshade: 0
Hairy beggarticks; [5]
  Plant response rating, Hairy Beggarticks: 0
Hairy beggarticks; [3]
  Plant response rating, Hairy Beggarticks: 0
Hairy beggarticks; [4]
  Plant response rating, Hairy Beggarticks: 0
Giant foxtail; [5]
  Plant response rating, Giant Foxtail: 100
Giant foxtail; [3]
  Plant response rating, Giant Foxtail: 100
Giant foxtail; [4]
  Plant response rating, Giant Foxtail: 5
